# According to patent publication US11166924B2, “N-methyl-d-aspartate receptor allosteric modulators and methods for their use” (Qingdao Primedicine Pharmaceutical Company, Ltd., priority 2016, dated 2021):
# Tests used:
# GluN1 or GluN2A mutants = experiment: Patch clamp in HEK293 cells, another 8 mutations within the defined pocket (summary); assay type: cell-based, rat
# Description: (§1) Whole cell patch-clamp recordings were performed under voltage-clamp mode using an Axopatch 200B or 1D patch-clamp amplifier (Molecular Devices). Whole-cell currents were recorded at a holding potential of −60 mV unless indicated elsewhere, and signals were filtered at 2 kHz, digitized at 10 kHz (Digidata 1322A). Recording pipettes (3-5 MΩ) were filled with intracellular solution containing (mM): CsCl 140, HEPES 10, Mg-ATP 4, QX-314 5, pH 7.20; osmolarity, 290-295 mOsm. BAPTA (10 mM) was added in the intracellular solution (unless otherwise specified). The coverslips were continuously superfused with extracellular solution containing (mM): NaCl 140, KCl 5.4, HEPES 10, CaCl2 1.3, glucose 20, pH 7.4; osmolarity, 305-315 mOsm. NMDA-induced currents were applied by NMDA through perfusion fast-step (Warner Instruments). With perfusion fast-step system, NMDA application was achieved by using a two-square barrel glass tubing and depending on the age of the cultured neurons, CNQX (10 μM), TTX (0.5 μM) or BIC (10 μM) were added in the extracellular solution to minimize the activation of ionotropic glutamate receptors and voltage-gated sodium channels, respectively. All experiments were performed at room temperature. Recordings from at least six HEK293 cells/neurons were performed for all active compounds. […]
# cortical neurons = experiment: H2O2-induced cytotoxicity in cortical neurons; assay type: cell-based; conditions: in the absence of NVP-AAM007; FIG. 17
# GluN1^R115E/GluN2A = molecular target: T1, GluN1^R115E/GluN2A (Rattus norvegicus, UniProt P35439+Q00959, R115E); experiment: Patch clamp in HEK293 cells expressing mutant GluN1 R115E/GluN2A; assay type: cell-based
# T1 construct: expressed in transfected cells; host or cells: HEK293
# T1 sequence (Q00959 23-1464, other chains not shown): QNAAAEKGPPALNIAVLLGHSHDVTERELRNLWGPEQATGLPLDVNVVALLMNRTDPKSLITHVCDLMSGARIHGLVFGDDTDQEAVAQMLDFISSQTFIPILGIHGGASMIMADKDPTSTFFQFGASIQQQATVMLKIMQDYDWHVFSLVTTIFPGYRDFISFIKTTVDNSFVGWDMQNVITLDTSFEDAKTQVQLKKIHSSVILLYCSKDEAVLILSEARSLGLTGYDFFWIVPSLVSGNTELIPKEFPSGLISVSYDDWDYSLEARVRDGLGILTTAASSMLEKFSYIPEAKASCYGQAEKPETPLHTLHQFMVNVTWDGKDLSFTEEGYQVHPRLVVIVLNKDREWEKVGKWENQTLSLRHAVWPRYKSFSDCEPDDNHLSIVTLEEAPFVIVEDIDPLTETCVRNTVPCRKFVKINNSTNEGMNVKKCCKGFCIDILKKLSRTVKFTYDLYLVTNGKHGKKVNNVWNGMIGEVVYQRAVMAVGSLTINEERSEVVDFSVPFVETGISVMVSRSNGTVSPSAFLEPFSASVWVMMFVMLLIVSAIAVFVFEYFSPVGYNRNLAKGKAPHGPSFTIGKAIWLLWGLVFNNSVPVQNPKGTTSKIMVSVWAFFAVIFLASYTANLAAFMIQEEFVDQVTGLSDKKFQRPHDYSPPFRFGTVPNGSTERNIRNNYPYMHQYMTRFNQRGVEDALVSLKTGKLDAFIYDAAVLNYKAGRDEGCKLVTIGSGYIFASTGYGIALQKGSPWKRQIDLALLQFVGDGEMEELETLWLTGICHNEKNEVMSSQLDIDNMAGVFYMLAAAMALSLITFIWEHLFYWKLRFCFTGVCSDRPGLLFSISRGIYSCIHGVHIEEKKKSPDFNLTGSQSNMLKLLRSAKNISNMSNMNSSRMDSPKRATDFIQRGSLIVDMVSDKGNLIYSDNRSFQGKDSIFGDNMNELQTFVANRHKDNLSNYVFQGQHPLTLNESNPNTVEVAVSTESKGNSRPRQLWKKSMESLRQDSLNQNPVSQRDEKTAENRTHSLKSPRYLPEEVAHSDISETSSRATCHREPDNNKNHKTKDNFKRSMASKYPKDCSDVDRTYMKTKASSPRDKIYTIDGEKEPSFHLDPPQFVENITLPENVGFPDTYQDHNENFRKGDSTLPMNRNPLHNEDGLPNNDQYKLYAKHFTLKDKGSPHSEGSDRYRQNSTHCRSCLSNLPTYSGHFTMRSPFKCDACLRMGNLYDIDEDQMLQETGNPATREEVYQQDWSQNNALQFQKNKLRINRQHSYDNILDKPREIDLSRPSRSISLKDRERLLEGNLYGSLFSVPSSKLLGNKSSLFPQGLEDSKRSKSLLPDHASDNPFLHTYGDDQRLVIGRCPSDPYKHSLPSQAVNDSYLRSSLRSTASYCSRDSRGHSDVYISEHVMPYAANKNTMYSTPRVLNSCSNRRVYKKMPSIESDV
# Description: as §1
compound,measurement,setting,value
"CCOc1cc(Cl)c(Cl)c(/C=N/NC(=O)c2ccccc2Br)c1O [Npam43, (E)-2-bromo-N′-(2,3-dichloro-5-ethoxy-6-hydroxybenzylidene)benzohydrazide]",Reduction in potentiation,GluN1 or GluN2A mutants,10-62%
same,H2O2-induced non-NMDAR dependent cytotoxicity,cortical neurons,reduced
same,Relative potentiation,GluN1^R115E/GluN2A; Table 3,255 ± 3.5%
same,Net Difference potentiation,GluN1^R115E/GluN2A; normalized to wild-type,+22.0 ± 0.40%
